Laboratory results taken from patent US20180280435A1, “T CELL DELIVERY OF MDA-7/IL-24 TO IMPROVE THERAPEUTIC ERADICATION OF CANCER AND GENERATE PROTECTIVE ANTITUMOR IMMUNITY” (VIRGINIA COMMONWEALTH UNIVERSITY, priority 2015, published 2018).

Assays:
[1] = system: CD11b+Gr-1+MDSCs; assay: MDSC frequency after MCL-1 inhibitor in tumor-bearing mice (FACS); type: in vivo
Protocol: FIG. 6. Potential immune modulation by MCL-1 inhibition. MCL-1 inhibitor reduces MDSCs in tumor-bearing mice. Tumor-bearing mice received BI-97C1 (Sabutoclax) (5 mg/kg or 20 mg/kg) i.p. or left untreated. 24 h later, splenic CD11b+GR-1+MDSCs were assessed by FACS.
Reduction of MDSCs could be explained by the direct cytotoxic effect of BI-97C1 (Sabutoclax), due to its ability to abrogate Bcl-2 protein functions.

[2] = system: CD8+ T cells; assay: T cell proliferation, 3H-thymidine (TdR) incorporation after anti-CD3/CD28 stimulation; type: cell-based; conditions: 20 ng/ml protein
Protocol: (§1) A. CD8+ T cells were stimulated with anti-CD3/CD28 antibodies in the presence or absence of purified MDA-7/IL-24 protein (20 ng/ml). Cell proliferation was measured using 3H-thymidine (TdR) incorporation assays. P<0.05. B. C57BL/6 mice were injected i.v. with MDA-7/IL-24 protein (10 μg) or PBS. 48 h later, lymph node cells were assessed for IFN-γ-producing CD8+ T cells by intracellular staining.
(§2) The clinical application of immunotherapy is limited by the escape mechanisms cancer cells employ to avoid immune destruction due to immunoediting (e.g., selection of non-immunogenic or antigen loss cancer cell variants) and other immunosuppressive mechanisms at the tumor site. Since cancer-specific toxicity of MDA-7/IL-24 is antigen-independent, the delivery of a cancer-suicide agent in combination with T-cells may overcome the acquired tumor resistance to T-cell therapy. Intriguingly, MDA-7/IL-24 protein enhanced the proliferation of T cells upon TCR ligation (FIG. 8A). Treatment of mice with recombinant MDA-7/IL-24 protein increased the frequency of IFN-γ-expressing CD8+ T cells (FIG. 8B), supporting a role of MDA-7/IL-24 as a pro-Th 1 cytokine.

[3] = system: IFN-γ-producing CD8+ T cells; assay: IFN-γ-producing CD8+ T cells in lymph nodes after i.v. protein (intracellular staining); type: in vivo, C57BL/6 mice; conditions: 10 μg i.v., 48 h later, lymph node cells
Protocol: as §1, §2

Molecule | frequency of CD11b+Gr-1+MDSCs ([1]; single administration i.p. (5 mg/kg or 20 mg/kg), splenic MDSCs 24 h later) | toxicity ([1]; single administration in tumor-bearing mice) | proliferation of T cells upon TCR ligation [2] | frequency of IFN-γ-expressing CD8+ T cells [3]
Cc1cc2c(C(=O)NC[C@H](C)c3ccccc3)c(O)c(O)cc2c(O)c1-c1c(C)cc2c(C(=O)NC[C@H](C)c3ccccc3)c(O)c(O)cc2c1O [BI-97C1, Sabutoclax] | substantially reduced | without inducing toxicity |  | 
MDA-7/IL-24 protein: Melanoma differentiation associated gene-7/Interleukin-24, secreted protein of the IL-10 family (protein) QEFHFGPCQVKGVVPQKLWEAFWAVKDTMQAQDNITSARLLQQEVLQNVSDAESCYLVHTLLEFYLKTVFKNYHNRTVEVRTLKSFSTLANNFVLIVSQLQPSQENEMFSIRDSAHRRFLLFRRAFKQLDVEAALTKALGEVDILLTWMQKFYKL |  |  | enhanced | increased
